Ten molecules from ChEMBL document CHEMBL1139797, “Conversion of the LXR-agonist TO-901317--from inverse to normal modulation of gamma-secretase by addition of a carboxylic acid and a lipophilic anchor” (Bioorg Med Chem Lett, 2007) can be followed below.

Common to all, as to assay type: cell-based
For data set [1], the target named is Gamma-secretase. The data set can be described thus: Effect on gamma-secretase activity in human H4 cells expressing APP695 assessed as reduction of Amyloid beta-38 formation by LPECL assay.
The target in data set [2] is Gamma-secretase. The data set can be described thus: Effect on gamma-secretase activity in human H4 cells expressing APP695 assessed as increase in Amyloid beta-42 formation LPECL assay.
The target in data set [3] is Gamma-secretase. The data set can be described thus: (§1) Effect on gamma-secretase activity in human H4 cells expressing APP695 assessed as reduction of Amyloid beta-40 formation LPECL assay.
Data set [4] relates to H4. Put plainly: Cytotoxicity against human H4 cells assessed as reduction of viability.
Data set [5] deals with Gamma-secretase. The data set can be described thus: Effect on gamma-secretase activity in human H4 cells expressing APP695 assessed as increase in Amyloid beta38 formation by LPECL assay.
The target in data set [6] is Gamma-secretase. The data set can be described thus: Effect on gamma-secretase activity in human H4 cells expressing APP695 assessed as reduction of Amyloid beta-42 formation LPECL assay.
In data set [7] the target is Gamma-secretase (Homo sapiens) (UniProt Q96BI3+Q9NZ42+Q8WW43+P49768+Q92542+P49810). The description is as §1.

The structures appear in SMILES notation. Active and inactive are the calls of the source. No cut-off for these calls is given here. Bounds are passed on as bounds.

Broadly, the IC50 is the concentration at which inhibition is half-maximal. For orientation: EC50 means the concentration needed to bring the measured effect to its halfway point. `CC(C(=O)OCc1ccccc1)c1ccc2c3cc(Cl)ccc3n(S(=O)(=O)c3cc(C(F)(F)F)cc(C(F)(F)F)c3)c2c1` (stereo not given): the half-maximal inhibitory concentration (IC50) in data set [1] was above 20 µM; in data set [3] it was above 40 µM. Besides, the EC50 in data set [2] was above 20 µM. For the same molecule, the Activity in data set [4] was above 40 µM.
For the molecule `O=S(=O)(c1ccccc1)N(CC(F)(F)F)c1ccc(C(O)(C(F)(F)F)C(F)(F)F)cc1` [T091317], the concentration for half-maximal inhibition (IC50) in data set [1] was 4.5 µM; in data set [3], above 40 µM. Further, the EC50 in data set [2] is 3.6 µM.
For the molecule `CC(C)c1cc(C(C)C)c(S(=O)(=O)n2c3ccccc3c3ccc(OCC(=O)O)cc32)c(C(C)C)c1`, the concentration for a half-maximal effect (EC50) in data set [5] stood at 7.8 µM. Further, the Activity in data set [4] was 20 µM.
In the case of `CC(C)(C)OC(=O)COc1ccc(NS(=O)(=O)c2cc(C(F)(F)F)cc(C(F)(F)F)c2)cc1`, the IC50 in data set [1] and in data set [3] was above 40 µM in each case. In addition, the half-maximal effective concentration (EC50) in data set [2] was 10.6 µM. For the same molecule, the Activity in data set [4] was above 40 µM.
For `CCCCCCCCCCn1c2ccccc2c2ccc(OCC(=O)O)cc21`, in data set [4], the Activity is above 40 µM.
As for `CC(C)c1cc(C(C)C)c(S(=O)(=O)n2c3ccc(Cl)cc3c3ccc(C(C)C(=O)O)cc32)c(C(C)C)c1` (stereo not given), the EC50 in data set [5] is 9.3 µM. Moreover, the Activity in data set [4] came to 40 µM.
For the molecule `CCCCCCCCN(c1ccc(OCC(=O)O)cc1)S(=O)(=O)c1cc(C(F)(F)F)cc(C(F)(F)F)c1`, the EC50 in data set [5] came out at 23.7 µM. Moreover, the results for the half-inhibitory concentration (IC50) in data set [3] and in data set [6] were above 40 µM and 19.6 µM, respectively. In addition, the Activity in data set [4] came to 40 µM.
Take `CCCCCCCCCCn1c2ccc(Cl)cc2c2ccc(C(C)C(=O)O)cc21` (stereo not given): the EC50 in data set [5] came out at 5.8 µM. In addition, in data set [4], the Activity worked out at 40 µM.
In the case of `Cc1ccc(S(=O)(=O)n2c3ccc(Cl)cc3c3ccc(C(C)C(=O)OCc4ccccc4)cc32)cc1` (stereo not given), in data set [1], the IC50 was determined as 20 µM. Moreover, the half-maximal effective concentration (EC50) in data set [2] stood at 20 µM. Moreover, in data set [7], the result was inactive. Further, in data set [4], the Activity is above 40 µM.
For the molecule `CCCCCCCCN(c1ccc(OCC(=O)OC(C)(C)C)cc1)S(=O)(=O)c1cc(C(F)(F)F)cc(C(F)(F)F)c1`, the concentration for half-maximal inhibition (IC50) was 13.3 µM in data set [1] and above 40 µM in data set [3]. Besides, in data set [2], the EC50 turned out to be 6.2 µM. Besides, the Activity in data set [4] is above 40 µM.
